In ChEMBL document CHEMBL2439989 (Bioorg Med Chem Lett, 2013):

Columns and labels:
[1] = Metabolic stability in rat liver S9 fractions at 10 uM after 30 mins by RP-HPLC analysis; assay type: ADME, subcellular, Liver S9 fraction; conditions: read-out: Stability
[2] = molecular target: Sigma non-opioid intracellular receptor 1 (Homo sapiens, UniProt Q99720); experiment: Binding affinity to sigma 1 receptor (unknown origin) by radioligand binding assay; conditions: for inhibition: concentration not given here
Sigma non-opioid intracellular receptor 1, sequence (Q99720 whole entry): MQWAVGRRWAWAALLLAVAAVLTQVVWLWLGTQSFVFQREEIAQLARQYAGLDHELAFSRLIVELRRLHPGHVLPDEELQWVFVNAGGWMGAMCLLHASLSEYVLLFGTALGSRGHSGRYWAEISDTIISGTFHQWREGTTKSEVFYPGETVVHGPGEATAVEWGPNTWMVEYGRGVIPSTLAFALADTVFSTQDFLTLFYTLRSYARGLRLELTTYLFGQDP

[3] = molecular target: T1, 5-hydroxytryptamine receptor 1A (Homo sapiens, UniProt P08908); experiment: Displacement of [3H]-8-OH-DPAT from human recombinant 5HT1A receptor expressed in HEK293-EBNA cells after 120 mins; assay type: cell-based
T1 sequence (P08908 whole entry): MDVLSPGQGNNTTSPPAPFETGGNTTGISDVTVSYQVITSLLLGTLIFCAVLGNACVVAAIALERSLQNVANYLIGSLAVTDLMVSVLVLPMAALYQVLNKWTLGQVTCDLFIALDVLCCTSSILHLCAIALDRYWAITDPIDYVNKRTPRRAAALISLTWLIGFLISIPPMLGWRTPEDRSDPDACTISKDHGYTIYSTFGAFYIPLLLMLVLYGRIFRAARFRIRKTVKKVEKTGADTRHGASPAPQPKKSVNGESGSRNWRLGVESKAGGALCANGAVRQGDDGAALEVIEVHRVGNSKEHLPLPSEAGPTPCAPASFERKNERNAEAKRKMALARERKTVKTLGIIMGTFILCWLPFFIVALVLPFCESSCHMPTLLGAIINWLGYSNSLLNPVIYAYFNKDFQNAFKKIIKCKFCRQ

[4] = (§1) Binding affinity to sigma 2 receptor (unknown origin) by radioligand binding assay; design: species or system Homo sapiens
[5] = molecular target: T2, Adrenergic receptor alpha-1 (Rattus norvegicus, UniProt P15823+P23944+P43140); experiment: Displacement of [3H]-prazosin from alpha1 adrenergic receptor in rat cerebral cortex membranes after 50 mins; assay type: cell membranes, Membrane
T2 sequence (P15823 whole entry): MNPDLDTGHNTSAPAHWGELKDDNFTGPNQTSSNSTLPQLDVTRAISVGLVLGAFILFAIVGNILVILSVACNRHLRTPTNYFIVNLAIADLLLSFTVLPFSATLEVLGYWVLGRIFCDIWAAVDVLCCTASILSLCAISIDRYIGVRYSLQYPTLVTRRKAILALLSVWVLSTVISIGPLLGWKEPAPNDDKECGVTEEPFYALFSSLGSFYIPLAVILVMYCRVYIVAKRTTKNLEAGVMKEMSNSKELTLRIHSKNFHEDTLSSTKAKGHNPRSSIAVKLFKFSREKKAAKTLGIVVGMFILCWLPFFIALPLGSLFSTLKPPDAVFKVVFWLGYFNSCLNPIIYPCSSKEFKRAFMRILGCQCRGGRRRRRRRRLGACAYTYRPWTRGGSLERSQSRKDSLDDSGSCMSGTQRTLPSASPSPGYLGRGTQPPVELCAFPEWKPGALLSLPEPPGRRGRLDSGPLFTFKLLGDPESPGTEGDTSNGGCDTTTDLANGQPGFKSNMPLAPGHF
T2 sequence (P23944 whole entry): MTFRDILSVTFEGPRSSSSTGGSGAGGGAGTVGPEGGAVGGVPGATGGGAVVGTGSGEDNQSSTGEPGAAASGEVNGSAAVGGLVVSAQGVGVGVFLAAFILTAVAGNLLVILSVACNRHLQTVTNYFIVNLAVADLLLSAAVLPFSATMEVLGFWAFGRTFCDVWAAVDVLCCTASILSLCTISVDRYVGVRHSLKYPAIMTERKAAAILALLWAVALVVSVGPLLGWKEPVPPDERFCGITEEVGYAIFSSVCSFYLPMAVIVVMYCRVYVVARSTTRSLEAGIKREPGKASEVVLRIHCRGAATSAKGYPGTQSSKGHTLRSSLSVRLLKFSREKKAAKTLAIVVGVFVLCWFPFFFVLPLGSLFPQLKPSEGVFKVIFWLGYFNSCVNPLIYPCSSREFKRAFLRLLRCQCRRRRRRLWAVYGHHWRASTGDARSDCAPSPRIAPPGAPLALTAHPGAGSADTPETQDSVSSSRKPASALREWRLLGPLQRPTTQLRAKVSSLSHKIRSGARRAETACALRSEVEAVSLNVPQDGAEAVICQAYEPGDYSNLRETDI
T2 sequence (P43140 whole entry): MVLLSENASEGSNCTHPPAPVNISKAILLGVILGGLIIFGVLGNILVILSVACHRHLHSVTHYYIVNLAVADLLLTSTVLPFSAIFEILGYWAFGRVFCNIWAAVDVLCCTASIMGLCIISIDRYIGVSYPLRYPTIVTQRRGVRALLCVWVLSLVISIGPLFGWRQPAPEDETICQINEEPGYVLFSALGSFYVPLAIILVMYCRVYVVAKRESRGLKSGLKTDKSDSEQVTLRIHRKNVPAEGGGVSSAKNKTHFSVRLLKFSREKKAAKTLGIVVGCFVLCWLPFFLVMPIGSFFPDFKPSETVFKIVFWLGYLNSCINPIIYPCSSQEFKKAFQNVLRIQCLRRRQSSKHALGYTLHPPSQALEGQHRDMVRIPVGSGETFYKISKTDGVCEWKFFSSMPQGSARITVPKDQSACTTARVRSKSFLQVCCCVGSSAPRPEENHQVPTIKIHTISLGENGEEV

[6] = molecular target: 5-hydroxytryptamine receptor 7 (Homo sapiens, UniProt P34969); experiment: Displacement of [3H]5-CT from human 5HT7A receptor expressed in HEK293 cells after 60 mins; assay type: cell-based
5-hydroxytryptamine receptor 7, sequence (P34969 whole entry): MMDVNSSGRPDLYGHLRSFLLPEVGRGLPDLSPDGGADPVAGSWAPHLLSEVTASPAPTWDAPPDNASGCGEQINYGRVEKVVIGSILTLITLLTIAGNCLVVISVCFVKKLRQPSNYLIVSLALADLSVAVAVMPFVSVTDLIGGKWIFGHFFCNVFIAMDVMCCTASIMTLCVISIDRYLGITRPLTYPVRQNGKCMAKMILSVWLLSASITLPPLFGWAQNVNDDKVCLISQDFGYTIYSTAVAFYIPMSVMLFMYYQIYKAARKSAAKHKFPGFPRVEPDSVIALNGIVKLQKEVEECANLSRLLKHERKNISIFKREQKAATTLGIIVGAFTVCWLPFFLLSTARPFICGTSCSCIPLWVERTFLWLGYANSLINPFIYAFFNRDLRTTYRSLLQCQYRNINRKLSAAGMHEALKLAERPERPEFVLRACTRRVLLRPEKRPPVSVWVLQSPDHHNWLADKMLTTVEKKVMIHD

[7] = Efflux ratio of apparent permeability from basolateral to apical side over apical to basolateral side in human Caco2 cells at 1 to 100 uM after 120 mins by UV spectroscopic analysis; assay type: ADME, cell-based; conditions: Caco-2
Brain = experiment: Cmax in brain of CD1 mouse assessed as 1-[2-(4-methoxyphenyl)phenyl]piperazine at 10 mg/kg, ip qd after 30 mins by RP-HPLC analysis; assay type: ADME, organism-based; design: dose 10 mg/kg, route intraperitoneal; conditions: in vivo, 0.5 h
Mus musculus = experiment: Elimination half life in CD1 mouse assessed as 1-[2-(4-methoxyphenyl)phenyl]piperazine at 10 mg/kg, ip qd by RP-HPLC analysis; assay type: ADME, organism-based; design: dose 10 mg/kg, route intraperitoneal; conditions: in vivo
[8] = Ratio of AUC from brain to plasma of CD1 mouse at 10 mg/kg, ip qd measured within 120 mins by RP-HPLC analysis; assay type: ADME, organism-based; design: dose 10 mg/kg, route intraperitoneal; conditions: read-out: Ratio AUC
[9] = Cmax in plasma of CD1 mouse at 10 mg/kg, ip qd after 15 mins by RP-HPLC analysis; assay type: ADME, organism-based; design: dose 10 mg/kg, route intraperitoneal
Homo sapiens = species: Homo sapiens; experiment: as §1; conditions: concentration not given here
[10] = Elimination half life in CD1 mouse at 10 mg/kg, ip qd by RP-HPLC analysis; assay type: ADME, organism-based; design: dose 10 mg/kg, route intraperitoneal; conditions: in vivo, read-out: beta t1/2
[11] = Cmax in brain of CD1 mouse at 10 mg/kg, ip qd after 30 mins by RP-HPLC analysis; assay type: ADME, organism-based; design: dose 10 mg/kg, route intraperitoneal
[12] = Half life in mouse brain at 10 to 30 mg/kg, ip; assay type: ADME, organism-based; design: dose 10-30 mg/kg, route intraperitoneal
[13] = molecular target: T1, 5-hydroxytryptamine receptor 1A; experiment: Displacement of [3H]-8-OH-DPAT from human 5HT1A receptor after […]

remaining at 0.5 h, 10 µM [1]	Ki [2]	inhibition [2]	Ki [3]	Ki [4]	Ki [5]	Ki [6]	efflux ratio at 2 h, up to 100 µM [7]	Cmax (Brain)	beta t1/2 (Mus musculus)	Kp at 2 h [8]	Cmax [9]	inhibition (Homo sapiens)	half-life [10]	Cmax [11]	half-life [12]	Ki [13]	SMILES
85%			0.08 µM	0.638 µM	0.0383 µM	0.0127 µM	4.5										COc1ccc(-c2ccccc2N2CCN(CCCCCC(=O)NCc3cccnc3)CC2)cc1
40%	> 5 µM	48%		4.2 µM	0.0226 µM										1.15 h	0.379 µM	N#Cc1ccc(CNC(=O)CCCCCN2CCN(c3ccccc3-c3ccccc3)CC2)cc1
78%	> 5 µM	27%	0.918 µM	> 10 µM	0.295 µM	0.0235 µM						39%					COc1ccc(-c2ccccc2N2CCN(CCOCCC(=O)NCc3ccccn3)CC2)cc1
69%			0.035 µM	3.48 µM	0.0114 µM	0.0152 µM											COc1ccc(-c2ccccc2N2CCN(CCCCCC(=O)NCc3ccccn3)CC2)cc1

Second part, the molecule before the results:

SMILES	remaining at 0.5 h, 10 µM [1]	Ki [2]	inhibition [2]	Ki [3]	Ki [4]	Ki [5]	Ki [6]	efflux ratio at 2 h, up to 100 µM [7]	Cmax (Brain)	beta t1/2 (Mus musculus)	Kp at 2 h [8]	Cmax [9]	inhibition (Homo sapiens)	half-life [10]	Cmax [11]	half-life [12]	Ki [13]
COc1ccc(-c2ccccc2N2CCN(CCCCCC(=O)NCc3ccncc3)CC2)cc1	76%	> 5 µM	30%	0.239 µM	0.356 µM	0.0305 µM	0.0112 µM										
COc1ccc(-c2ccccc2N2CCN(CCOCCC(=O)NCc3cccnc3)CC2)cc1	82%	> 5 µM	36%	1.27 µM	> 10 µM	0.393 µM	0.0238 µM	3.3	484 ng/g	2 h	1.3	702 ng/mL	38%	0.733 h	308 ng/g		
COc1ccc(-c2ccccc2N2CCN(CCOCCC(=O)NCc3ccncc3)CC2)cc1	82%	> 5 µM	33%	0.877 µM	> 10 µM	0.193 µM	0.018 µM						45%				
